Values after ≈ are worked out from the molar mass of the structure shown.
Key:
[1] = Inhibition of SARS Coronavirus helicase expressed in Escherichia coli assessed as reduction in ATP hydrolysis preincubated for 5 mins followed by ATP and circular ssDNA M13 addition and measured after 10 mins by malachite green and ammonium molybdate reagent based assay; design: species or system Severe acute respiratory syndrome-related coronavirus
[2] = Inhibition of SARS Coronavirus helicase expressed in Escherichia coli assessed as reduction in dsDNA unwinding activity by FRET assay; design: species or system Severe acute respiratory syndrome-related coronavirus
[3] = Cytotoxicity against human MRC5 cells incubated for 96 hrs by XTT assay; type: cell-based
[4] = Selectivity ratio of CC50 for human MRC5 cells to EC50 for HCoV-229E infected in human MRC5 cells; type: toxicity, cell-based; conditions: read-out: Ratio CC50/EC50
Human coronavirus 229E [5] = assay: Antiviral activity against HCoV-229E infected in human MRC-5 cells incubated for 96 hrs by XTT assay; type: functional, organism-based; conditions: MRC5, 96 h
Human coronavirus 229E [6] = assay: Antiviral activity against HCoV-229E infected in human Huh7 cells assessed as reduction in virus induced cytopathic effect incubated for 6 days by cellTiter-Glo assay; type: functional, organism-based; conditions: Huh-7, 144 h
[7] = Cytotoxicity against HAE cells by CellTiter-Glo assay; type: cell-based; conditions: human
Human coronavirus OC43 [8] = assay: Antiviral activity against wild type HCoV-OC43 infected in human Huh-7 cells preincubated for 1 hrs followed by overlaying with reduced-serum Medium and measured after 72 hrs ELISpot assay; type: functional, cell-based; conditions: Betacoronavirus 1, Huh-7
[9] = Cytotoxicity against human Huh-7 cells by CellTiter-Glo assay; type: cell-based
Huh-7 = assay: Cytotoxicity against human Huh7 cells incubated for 6 days by cellTiter-Glo assay; type: functional; conditions: Huh-7, 144 h, time 6 day
[10] = Cytotoxicity against African green monkey Vero E6 cells by the CCK8 assay; type: cell-based, Vero C1008; conditions: chlorocebus sabaeus
SARS-CoV [11] = assay: Antiviral activity against SARS-CoV expressing green fluorescent protein infected in human airway epithelial cells incubated for 48 hrs by RT-PCR method; type: functional, organism-based; conditions: Severe acute respiratory syndrome-related coronavirus, HAE
[12] = Inhibition of SARS Coronavirus helicase pp1ab domain assessed as reduction in helicase activity using DT20Cy3/Release BHQ oligomers by FRET-based assay; design: species or system Severe acute respiratory syndrome-related coronavirus
[13] = Inhibition of SARS Coronavirus helicase pp1ab domain assessed as reduction in ATPase activity by phosphomolybdate-malachite green assay; design: species or system Severe acute respiratory syndrome-related coronavirus
SARS-CoV [14] = assay: Antiviral activity against SARS-CoV by cell-based assay; type: functional; conditions: Severe acute respiratory syndrome-related coronavirus
in vitro [15] = conditions: rhesus monkey, LLC-MK2 cells
Human coronavirus OC43 [16] = assay: Antiviral activity against wild type HCoV-OC43 infected in BHK-21 cells incubated for 72 hrs by RT-PCR method; type: functional, cell-based; conditions: Betacoronavirus 1, BHK-21, 72 h
in vitro [17] = conditions: rhesus monkey, LLC-MK2 cells; remark: listed apart in the source
[18] = Antiviral activity against HCoV-NL63 infected in Rhesus macaque LLC-MK2 cells incubated for 72 hrs by RT-PCR method; type: functional, cell-based; conditions: Human coronavirus NL63, LLC-MK2, 72 h
in vitro [19] = conditions: hamster, BHK-21 cells
in vitro [20] = conditions: hamster, BHK-21 cells; remark: listed apart in the source
SARS-CoV [21] = assay: Antiviral activity against SARS-CoV infected in African green monkey Vero E6 cells assessed as reduction in viral replication by ELISA; type: functional, organism-based; conditions: Severe acute respiratory syndrome-related coronavirus, Vero C1008
[22] = Cytotoxicity against African green monkey Vero E6 cells incubated for 2 days by the MTS assay; type: cell-based, Vero C1008; conditions: chlorocebus sabaeus, time 2 day
[23] = Selectivity index, ratio of CC50 for African green monkey Vero E6 cells to EC50 for SARS-CoV infected in African green monkey Vero E6 cells; type: toxicity, Vero C1008; conditions: read-out: Ratio CC50/EC50
[24] = Selectivity ratio of CC50 for African green monkey Vero cells to EC50 for SARS-CoV FFM1 infected in African green monkey Vero cells; type: toxicity; conditions: read-out: Ratio CC50/EC50
SARS-CoV [25] = assay: Antiviral activity against SARS-CoV FFM2 infected in African green monkey Vero cells assessed as reduction in virus induced cytopathic effect treated twice for 7 days; type: functional, organism-based; conditions: Severe acute respiratory syndrome-related coronavirus, 168 h
SARS-CoV [26] = assay: Antiviral activity against SARS-CoV FFM1 infected in African green monkey Vero cells assessed as reduction in virus induced cytopathic effect treated twice for 7 days; type: functional, organism-based; conditions: Severe acute respiratory syndrome-related coronavirus, 168 h
[27] = Selectivity ratio of CC50 for African green monkey Vero cells to EC50 for SARS-CoV FFM2 infected in African green monkey Vero cells; type: toxicity; conditions: read-out: Ratio CC50/EC50
SARS-CoV-2 [28] = assay: Antiviral activity against SARS-CoV-2 infected in African green monkey Vero cells incubated for 48 hrs by RT-PCR method; type: functional, organism-based; conditions: Severe acute respiratory syndrome coronavirus 2, Vero
SARS-CoV-2 [29] = assay: Antiviral activity against 2019-nCoV BetaCoV/Wuhan/WIV04/2019 infected in African green monkey VeroE6 cells assessed as reduction in viral yield preincubated with virus for 1 hr followed by cell infection and […] by qRT-PCR method; type: functional, organism-based; conditions: Severe acute respiratory syndrome coronavirus 2, BetaCoV/Wuhan/WIV04/2019, Vero C1008
[30] = Selectivity index, ratio of CC50 for African green monkey Vero E6 cells to EC50 for 2019-nCoV Beta CoV/Wuhan/WIV04/2019 infected in African green monkey Vero E6 cells; type: toxicity, Vero C1008; conditions: read-out: Ratio CC50/EC50

NS(=O)(=O)c1ccc(NC(=O)/C=C/c2ccco2)cc1
IC50 [1]: 2.09 µM
IC50 [2]: 13.2 µM

C[C@H]1O[C@@H](O[C@H]2CC[C@@]3(C)[C@@H](CC[C@]4(C)[C@@H]3C=CC3=C5CC(C)(C)CC[C@]5(CO)[C@H](O)C[C@]34C)[C@]2(C)CO)[C@H](O)[C@@H](O[C@@H]2O[C@H](CO)[C@@H](O)[C@H](O)[C@H]2O)[C@H]1O
CC50 at 96 h [3]: 383 µM
selectivity ratio [4]: 222
EC50 (Human coronavirus 229E [5]): 1.7 µM

CCC(CC)COC(=O)[C@H](C)N[P@](=O)(OC[C@H]1O[C@@](C#N)(c2ccc3c(N)ncnn23)[C@H](O)[C@@H]1O)Oc1ccccc1
EC50 (Human coronavirus 229E [6]): 0.024 µM
CC50 [7]: > 10 µM
EC50 (Human coronavirus OC43 [8]): 0.15 µM
CC50 [9]: > 10 µM
CC50 (Huh-7): > 10 µM
CC50 [10]: 100 µM
EC50 (SARS-CoV [11]): 0.06 µM

CCn1c(S)nc2c1c(=O)[nH]c(=O)n2C
IC50 [1]: 8.66 µM
IC50 [2]: 41.6 µM

COc1cc(CC(C)c2nc(C)c(O)c(C34OC5(O)CC(O)(CC(O)(C5)O3)O4)c2CO)ccc1O (stereo not drawn)
IC50 [12]: 5.4 µM
IC50 [13]: 2.8 µM

COc1cc(C23OC4(O)CC(O)(CC(O)(C4)O2)O3)ccc1O
IC50 [12]: 2.7 µM
IC50 [13]: 0.68 µM

Cc1nc(I)c(C(=O)O)c(C23OC4(O)CC(O)(CC(O)(C4)O2)O3)c1O
IC50 [12]: 7 µM
IC50 [13]: 0.54 µM

C[C@@H]1O[C@@H](O[C@H]2[C@H](O[C@H]3CC[C@@]4(C)[C@@H](CC[C@]5(C)[C@@H]4CC=C4[C@@H]6CC(C)(C)CC[C@]6(C(=O)O)CC[C@]45C)[C@]3(C)CO)OC[C@H](O)[C@@H]2O)[C@H](O)[C@H](O)[C@H]1O [ALPHA-HEDERIN]
MIC (SARS-CoV [14]): 10 µM (≈ 7.51 µg/mL)

CC[C@H]1CN2CCc3cc(OC)c(OC)cc3[C@@H]2C[C@@H]1C[C@H]1NCCc2cc(OC)c(OC)cc21 [EMETINE]
selectivity ratio (in vitro [15]): 2.5
EC50 (Human coronavirus OC43 [16]): 0.3 µM
CC50 at 72 h (in vitro [17]): 3.63 µM
EC50 [18]: 1.43 µM
selectivity ratio (in vitro [19]): 9
CC50 at 72 h (in vitro [20]): 2.69 µM

C/C=C(\C)C(=O)O[C@H]1[C@H](OC(C)=O)[C@]2(CO)[C@H](O)C[C@]3(C)C(=CC[C@@H]4[C@@]5(C)CC[C@H](O[C@@H]6O[C@H](C(=O)O)[C@@H](O[C@@H]7O[C@H](CO)[C@@H](O)[C@H](O)[C@H]7O)[C@H](O)[C@H]6O[C@@H]6O[C@H](CO)[C@@H](O)[C@H](O)[C@H]6O)[C@](C)(CO)[C@@H]5CC[C@]43C)[C@@H]2CC1(C)C [ESCIN IA]
IC50 (SARS-CoV [21]): 6 µM
CC50 at 48 h [22]: 25 µM
selectivity ratio [23]: 2.5

CC1(C)[C@@H](O[C@H]2O[C@H](C(=O)O)[C@@H](O)[C@H](O)[C@H]2O[C@@H]2O[C@H](C(=O)O)[C@@H](O)[C@H](O)[C@H]2O)CC[C@]2(C)[C@H]3C(=O)C=C4[C@@H]5C[C@@](C)(C(=O)O)CC[C@]5(C)CC[C@@]4(C)[C@]3(C)CC[C@@H]12 [GLYCYRRHIZIN]
selectivity ratio [24]: 66
EC50 (SARS-CoV [25]): 365 µM
EC50 (SARS-CoV [26]): 365 µM
selectivity ratio [27]: 66

CCN(CCO)CCCC(C)Nc1ccnc2cc(Cl)ccc12 (stereo not drawn) [HYDROXYCHLOROQUINE]
IC50 (SARS-CoV-2 [28]): 0.72 µM

CC[C@@]1([C@H]2O[C@H]([C@H]3O[C@@](O)(CO)[C@H](C)C[C@@H]3C)C[C@H]2C)CC[C@H]([C@@]2(C)CC[C@]3(C[C@H](O)[C@@H](C)[C@@H]([C@H](C)[C@H](OC)[C@@H](C)C(=O)O)O3)O2)O1 [MONENSIN SODIUM]
EC50 (Human coronavirus OC43 [16]): 3.81 µM
EC50 [18]: 1.54 µM

COc1c(C)c2c(c(O)c1C/C=C(\C)CCC(=O)OCCN1CCOCC1)C(=O)OC2 [MYCOPHENOLATE MOFETIL]
selectivity ratio (in vitro [15]): 13
EC50 (Human coronavirus OC43 [16]): 1.58 µM
CC50 at 72 h (in vitro [17]): 3.01 µM
EC50 [18]: 0.23 µM
selectivity ratio (in vitro [19]): 2.2
CC50 at 72 h (in vitro [20]): 3.43 µM

COc1c(C)c2c(c(O)c1C/C=C(\C)CCC(=O)O)C(=O)OC2 [MYCOPHENOLIC ACID]
selectivity ratio (in vitro [15]): 19
EC50 (Human coronavirus OC43 [16]): 1.95 µM
CC50 at 72 h (in vitro [17]): 3.44 µM
EC50 [18]: 0.18 µM
selectivity ratio (in vitro [19]): 1.8
CC50 at 72 h (in vitro [20]): 3.55 µM

N=C(N)c1ccc2cc(OC(=O)c3ccc(N=C(N)N)cc3)ccc2c1 [NAFAMOSTAT]
EC50 (SARS-CoV-2 [29]): 22.5 µM
CC50 [10]: > 100 µM
selectivity ratio [30]: > 4.4

CC(=O)Oc1ccccc1C(=O)Nc1ncc([N+](=O)[O-])s1 [NITAZOXANIDE]
EC50 (SARS-CoV-2 [29]): 2.12 µM
CC50 [10]: > 35.5 µM
selectivity ratio [30]: > 16.7

Nc1nc2c(ncn2CCC(CO)CO)c(=O)[nH]1 [PENCICLOVIR]
IC50 (SARS-CoV-2 [29]): 95.9 µM
CC50 [10]: > 400 µM
selectivity ratio [30]: > 4.2

Nc1ccc(/N=N/c2ccccc2)c(N)n1 [PHENAZOPYRIDINE]
selectivity ratio (in vitro [15]): > 9.9
EC50 (Human coronavirus OC43 [16]): 1.9 µM
CC50 at 72 h (in vitro [17]): > 20 µM
EC50 [18]: 2.02 µM
selectivity ratio (in vitro [19]): > 10
CC50 at 72 h (in vitro [20]): > 20 µM

Cc1cc(/C=C/c2ccc3cc(N(C)C)ccc3[n+]2C)c(C)n1-c1ccccc1 [PYRVINIUM PAMOATE]
EC50 (Human coronavirus OC43 [16]): 3.21 µM
EC50 [18]: 3.35 µM

COC(=O)[C@H]1[C@H]2C[C@@H]3c4[nH]c5cc(OC)ccc5c4CCN3C[C@H]2C[C@@H](OC(=O)c2cc(OC)c(OC)c(OC)c2)[C@@H]1OC [RESERPINE]
IC50 (SARS-CoV [21]): 3.4 µM
CC50 at 48 h [22]: 25 µM
selectivity ratio [23]: 7.3

NC(=O)c1ncn([C@@H]2O[C@H](CO)[C@@H](O)[C@H]2O)n1 [RIBAVIRIN]
CC50 [10]: > 400 µM

CC(C)[C@@H]1NC(=O)[C@H](C)OC(=O)[C@@H](C(C)C)NC(=O)[C@@H](C(C)C)OC(=O)[C@H](C(C)C)NC(=O)[C@H](C)OC(=O)[C@@H](C(C)C)NC(=O)[C@@H](C(C)C)OC(=O)[C@H](C(C)C)NC(=O)[C@H](C)OC(=O)[C@@H](C(C)C)NC(=O)[C@@H](C(C)C)OC1=O [VALINOMYCIN]
IC50 (SARS-CoV [21]): 0.85 µM
CC50 at 48 h [22]: 68 µM
selectivity ratio [23]: 80
